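The concentration for 50% growth inhibition is given as GI50. Definition used: TGI = concentration required for complete inhibition of growth.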
How the values were obtained:
Assay in all cases: NCI tumour cell line growth inhibition, 384-well format; in the data active means GI50 below about 0.43 µM; inactive means the rest
786-0 renal = test system: 786-0 renal
A498 renal = test system: A498 renal
A549 NSCLC = test system: A549 NSCLC
ACHN renal = test system: ACHN renal
BT-549 breast = test system: BT-549 breast
CAKI-1 renal = test system: CAKI-1 renal
COLO 205 colon = test system: COLO 205 colon
DU-145 prostate = test system: DU-145 prostate
EKVX NSCLC = test system: EKVX NSCLC
HCC-2998 colon = test system: HCC-2998 colon
HCT-116 colon = test system: HCT-116 colon
HCT-15 colon = test system: HCT-15 colon
HL-60(TB) leukemia = test system: HL-60(TB) leukemia
HOP-62 NSCLC = test system: HOP-62 NSCLC
HOP-92 NSCLC = test system: HOP-92 NSCLC
HS 578T breast = test system: HS 578T breast
HT29 colon = test system: HT29 colon
IGROV1 ovarian = test system: IGROV1 ovarian
KM12 colon = test system: KM12 colon
LOX IMVI melanoma = test system: LOX IMVI melanoma
M14 melanoma = test system: M14 melanoma
MALME-3M melanoma = test system: MALME-3M melanoma
MCF7 breast = test system: MCF7 breast
MDA-MB-231 breast = test system: MDA-MB-231 breast
MDA-MB-435 melanoma = test system: MDA-MB-435 melanoma
MDA-MB-468 breast = test system: MDA-MB-468 breast
MOLT-4 leukemia = test system: MOLT-4 leukemia
NCI-H226 lung = test system: NCI-H226 lung
NCI-H23 lung = test system: NCI-H23 lung
NCI-H322M lung = test system: NCI-H322M lung
NCI-H460 NSCLC = test system: NCI-H460 NSCLC
NCI-H522 lung = test system: NCI-H522 lung
NCI/ADR-RES ovarian = test system: NCI/ADR-RES ovarian
OVCAR-3 ovarian = test system: OVCAR-3 ovarian
OVCAR-4 ovarian = test system: OVCAR-4 ovarian
OVCAR-5 ovarian = test system: OVCAR-5 ovarian
OVCAR-8 ovarian = test system: OVCAR-8 ovarian
PC-3 prostate = test system: PC-3 prostate
RPMI-8226 leukemia = test system: RPMI-8226 leukemia
RXF 393 renal = test system: RXF 393 renal
SF-268 CNS = test system: SF-268 CNS
SF-295 CNS = test system: SF-295 CNS
SF-539 CNS = test system: SF-539 CNS
SK-MEL-28 melanoma = test system: SK-MEL-28 melanoma
SK-MEL-5 melanoma = test system: SK-MEL-5 melanoma
SK-OV-3 ovarian = test system: SK-OV-3 ovarian
SN12C renal = test system: SN12C renal
SNB-19 CNS = test system: SNB-19 CNS
SNB-75 CNS = test system: SNB-75 CNS
SR leukemia = test system: SR leukemia
SW-620 colon = test system: SW-620 colon
T-47D breast = test system: T-47D breast
TK-10 renal = test system: TK-10 renal
U251 glioblastoma = test system: U251 glioblastoma
UACC-257 melanoma = test system: UACC-257 melanoma
UACC-62 melanoma = test system: UACC-62 melanoma
UO-31 renal = test system: UO-31 renal

Nc1cccc2c1CN(C1CCC(=O)NC1=O)C2=O (centres undefined)
inactive: GI50 (786-0 renal) > 100 µM | GI50 (A498 renal) > 100 µM | GI50 (A549 NSCLC) > 100 µM | GI50 (ACHN renal) > 100 µM | GI50 (BT-549 breast) > 100 µM | GI50 (CAKI-1 renal) > 100 µM | GI50 (COLO 205 colon) > 100 µM | GI50 (DU-145 prostate) > 100 µM | GI50 (EKVX NSCLC) > 100 µM | GI50 (HCC-2998 colon) > 100 µM | GI50 (HCT-116 colon) > 100 µM | GI50 (HCT-15 colon) > 100 µM | GI50 (HL-60(TB) leukemia) > 100 µM | GI50 (HOP-62 NSCLC) > 100 µM | GI50 (HOP-92 NSCLC) > 100 µM | GI50 (HS 578T breast) > 100 µM | GI50 (HT29 colon) > 100 µM | GI50 (IGROV1 ovarian) > 100 µM | GI50 (KM12 colon) > 100 µM | GI50 (LOX IMVI melanoma) > 100 µM | GI50 (M14 melanoma) > 100 µM | GI50 (MALME-3M melanoma) > 100 µM | GI50 (MCF7 breast) > 100 µM | GI50 (MDA-MB-231 breast) > 100 µM | GI50 (MDA-MB-435 melanoma) > 100 µM | GI50 (MDA-MB-468 breast) > 100 µM | GI50 (MOLT-4 leukemia) > 100 µM | GI50 (NCI-H226 lung) > 100 µM | GI50 (NCI-H23 lung) > 100 µM | GI50 (NCI-H322M lung) > 100 µM | GI50 (NCI-H460 NSCLC) > 100 µM | GI50 (NCI-H522 lung) > 100 µM | GI50 (NCI/ADR-RES ovarian) > 100 µM | GI50 (OVCAR-3 ovarian) > 100 µM | GI50 (OVCAR-4 ovarian) > 100 µM | GI50 (OVCAR-5 ovarian) > 100 µM | GI50 (OVCAR-8 ovarian) > 100 µM | GI50 (PC-3 prostate) > 100 µM | GI50 (RPMI-8226 leukemia) > 100 µM | GI50 (RXF 393 renal) > 100 µM | GI50 (SF-268 CNS) > 100 µM | GI50 (SF-295 CNS) > 100 µM | GI50 (SF-539 CNS) > 100 µM | GI50 (SK-MEL-28 melanoma) > 100 µM | GI50 (SK-MEL-5 melanoma) > 100 µM | GI50 (SK-OV-3 ovarian) > 100 µM | GI50 (SN12C renal) > 100 µM | GI50 (SNB-19 CNS) > 100 µM | GI50 (SNB-75 CNS) > 100 µM | GI50 (SR leukemia) > 100 µM | GI50 (SW-620 colon) > 100 µM | GI50 (T-47D breast) > 100 µM | GI50 (TK-10 renal) > 100 µM | GI50 (U251 glioblastoma) > 100 µM | GI50 (UACC-257 melanoma) > 100 µM | GI50 (UACC-62 melanoma) > 100 µM | GI50 (UO-31 renal) > 100 µM
> 100 µM: TGI (786-0 renal) | TGI (A498 renal) | TGI (A549 NSCLC) | TGI (ACHN renal) | TGI (BT-549 breast) | TGI (CAKI-1 renal) | TGI (COLO 205 colon) | TGI (DU-145 prostate) | TGI (EKVX NSCLC) | TGI (HCC-2998 colon) | TGI (HCT-116 colon) | TGI (HCT-15 colon) | TGI (HL-60(TB) leukemia) | TGI (HOP-62 NSCLC) | TGI (HOP-92 NSCLC) | TGI (HS 578T breast) | TGI (HT29 colon) | TGI (IGROV1 ovarian) | TGI (KM12 colon) | TGI (LOX IMVI melanoma) | TGI (M14 melanoma) | TGI (MALME-3M melanoma) | TGI (MCF7 breast) | TGI (MDA-MB-231 breast) | TGI (MDA-MB-435 melanoma) | TGI (MDA-MB-468 breast) | TGI (MOLT-4 leukemia) | TGI (NCI-H226 lung) | TGI (NCI-H23 lung) | TGI (NCI-H322M lung) | TGI (NCI-H460 NSCLC) | TGI (NCI-H522 lung) | TGI (NCI/ADR-RES ovarian) | TGI (OVCAR-3 ovarian) | TGI (OVCAR-4 ovarian) | TGI (OVCAR-5 ovarian) | TGI (OVCAR-8 ovarian) | TGI (PC-3 prostate) | TGI (RPMI-8226 leukemia) | TGI (RXF 393 renal) | TGI (SF-268 CNS) | TGI (SF-295 CNS) | TGI (SF-539 CNS) | TGI (SK-MEL-28 melanoma) | TGI (SK-MEL-5 melanoma) | TGI (SK-OV-3 ovarian) | TGI (SN12C renal) | TGI (SNB-19 CNS) | TGI (SNB-75 CNS) | TGI (SR leukemia) | TGI (SW-620 colon) | TGI (T-47D breast) | TGI (TK-10 renal) | TGI (U251 glioblastoma) | TGI (UACC-257 melanoma) | TGI (UACC-62 melanoma) | TGI (UO-31 renal)

From PubChem BioAssay (NCI)
